Test results from patent publication US10555987B2, “GHRH agonists for the treatment of ischemic disorders” (UNIVERSITY OF MIAMI, priority 2012, dated 2020).
“Also recorded” adds a separate entry of the source. Non-standard residues stand in square brackets, D forms with d. Residues, ends and D or L forms follow the SMILES beside them. *: point of attachment. Desaminotyrosyl = O=C(CCc1ccc(O)cc1)*; NMeY = CN[C@@H](Cc1ccc(O)cc1)C(=O)O; Agmatine = N=C(N)NCCCCN*; Nle = CCCC[C@H](N)C(=O)O; Orn = NCCC[C@H](N)C(=O)O; Abu = CC[C@H](N)C(=O)O

Experiments:
[1] = test system: myocardial infarction (Fisher-344 rats); test: Immunostaining of heart tissue (pH3, c-kit, arterioles), rat MI model (Example 13); type: in vivo; settings: for c-kit (positive cells in the heart) / phospho H3 (positive cells in the heart): 50 μg/kg s.c. twice daily for 4 weeks, mean ± SEM; for number of arterioles: isolectin / SMA22a co-staining of heart sections
Description: Myocardial infarction (MI) was induced by permanent ligation of the left coronary artery in female 6-month-old Fisher-344 rats. Animals were randomly assigned to receive placebo (DMSO+propylene glycol) or one of the GHRH-agonists (JI-38, MR-356/P-20356, MR-409/P-27409, all 50 μg/kg), starting 4 weeks post-MI. All treatment was given subcutaneously twice daily for 4 weeks.
Paraffin sections were deparaffinized and rehydrated by immersion in xylene followed by a graded series of ethanol. Antigen retrieval was performed by a heat-induced method with citrate buffer (Dako, Carpinteria, Calif.). After blocking with 10% normal donkey serum, sections were incubated with a primary antibody at 37° C. for 1 hour, followed by application of secondary antibody. Omission of the primary antibodies on parallel sections was used as negative control. Nuclei were counterstained with DAPI (Invitrogen, Carlsbad, Calif.). The total numbers of positively-stained cells (c-kit, CD45, phospho-histone H3 [pH3]) were quantified per slide to calculate the number of cells per section on each sample. Morphometric analysis was performed using Adobe Photoshop CS3 (San Jose, Calif.).
Heart sections were co-stained with isolectin (endothelial cell marker) and vascular smooth muscle (SMA22a) to identify arterioles which play a crucial role in cardiac repair. […] An inverse correlation between number of arterioles and infarct size was observed (FIG. 5C).

[2] = test system: myocardial infarction (Fisher-344 rats); test: Serial echocardiography after MI, compared to JI-38 (Example 15, Table 15); type: in vivo, rat; set-up: key to LVEDD: Left Ventricular End Diastolic Diameter / LVESD: Left Ventricular End Systolic Diameter / VD: Ventricular Diastole / VS: Ventricular Systole / EF: Ejection Fraction / FS: Fraction Shortening: ↓: downward arrow denotes lower than JI-38; ↑: upward arrow denotes greater than JI-38; =denotes same as JI-38; ⬇⬇: double arrow denotes greater effect; ⬆⬆: double arrow denotes greater effect; settings: for cardiac dimensions (LVEDD and LVESD) / cardiac performance (EF and FS): after MI; for EF: Ejection Fraction / FS: Fraction Shortening / LVEDD: Left Ventricular End Diastolic Diameter / LVESD: Left Ventricular End Systolic Diameter / VD: Ventricular Diastole / VS: Ventricular Systole: in comparison to JI-38
Outline: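 Female 6-month-old Fisher-344 rats with permanent left coronary artery ligation received placebo, JI-38 or GHRH agonists subcutaneously twice daily from 2 h post-surgery (10 per group). Under 2% isoflurane, M-mode LVEDD, LVESD and FS plus long-axis EF were measured at baseline, 2 days, 1, 2 and 4 weeks.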

GH release [3] = test: In vivo endocrine activity, GH release after subcutaneous administration (Table 9); settings: rat; for Stimulation of growth hormone levels after subcutaneous administration (in words): s.c.; for GH releasing potency relative to JI-38 (=1): subcutaneous (s.c.) injection
Description: Subcutaneous Administration. Adult male rats were used and anesthetized with pentobarbital (6 mg/100 g, b.w.), by i.p. injection. […] Blood samples were taken from the jugular vein 5, 15 and/or 30 minutes after the injection. The blood samples were centrifuged, plasma was removed and the GH level was measured byELISA. The results are summarized in terms of potency in Table 9.

[4] = test system: myocardial infarction (Fischer 344 rats); test: Morphometric analysis, percentage of infarcted myocardium (Example 14); type: in vivo, rat; settings: vs. placebo, FIG. 8
Description: MI was induced in female 6-month-old Fischer 344 rats by permanent ligation of left ventricular (LV) anterior descending coronary artery. Animals were randomly assigned to receive placebo or one of the following GHRH agonists (MR-356, MR-361, MR-367, MR-403, MR-404, MR-409 and MR-502) starting 2 hours post-surgery. All treatment (50 μg/kg) was given subcutaneously twice daily for 4 weeks. The Institutional Animal Care and Use committee of the University of Miami approved all protocols and experimental procedures.
Slides were prepared with H&E and Masson's trichrome stain to assess cardiac structure and the presence and extent of myocardial scar, respectively. The percentage of infarcted myocardium was calculated.

GH release [5] = test: GH releasing potency in vivo, intravenous administration (Example 14, Table 13); set-up: species or system rat; settings: i.v.; for Relative potency, 5 min / Relative potency, 15 min: JI-38 = 1; for Serum GH level at selected time after injection (ng/ml), 0 min / Serum GH level at selected time after injection (ng/ml), 5 min / Serum GH level at selected time after injection (ng/ml), 15 min: dose 1 μg/kg, mean ± SEM
Outline: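 Potency is expressed relative to GHRH(1-29)NH2 and JI-38 (each = 1), via equivalent GHRH(1-29)NH2 dose read from a standard curve. Peptides in 5% mannitol given i.v. or s.c. to anaesthetised male Sprague-Dawley rats (200-250 g); serum GH measured by ELISA at selected times.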

Row | Compound | c-kit (positive cells in the heart) [1] | phospho H3 (positive cells in the heart) [1] | number of arterioles [1] | cardiac dimensions (LVEDD and LVESD) [2] | cardiac performance (EF and FS) [2] | EF: Ejection Fraction [2] | FS: Fraction Shortening [2] | LVEDD: Left Ventricular End Diastolic Diameter [2] | LVESD: Left Ventricular End Systolic Diameter [2] | VD: Ventricular Diastole [2] | VS: Ventricular Systole [2] | Stimulation of growth hormone levels after subcutaneous administration (in words) (GH release [3]) | GH releasing potency relative to JI-38 (=1) (GH release [3]; 15 min after) | GH releasing potency relative to JI-38 (=1) (GH release [3]; 30 min after) | Relative potency, 5 min (GH release [5]) | Relative potency, 15 min (GH release [5]) | Serum GH level at selected time after injection (ng/ml), 0 min (GH release [5]) | Serum GH level at selected time after injection (ng/ml), 5 min (GH release [5]) | Serum GH level at selected time after injection (ng/ml), 15 min (GH release [5]) | also measured
1 | CCCC[C@H](NC(=O)[C@@H](NC(=O)[C@H](CC(=O)O)NC(=O)[C@H](CCC(N)=O)NC(=O)[C@H](CC(C)C)NC(=O)[C@H](CC(C)C)NC(=O)[C@H](CCCN)NC(=O)[C@H](CCCNC(=N)N)NC(=O)[C@H](C)NC(=O)[C@H](CO)NC(=O)[C@H](CC(C)C)NC(=O)[C@H](CCC(N)=O)NC(=O)[C@H](CC)NC(=O)[C@H](CC(C)C)NC(=O)[C@@H](NC(=O)[C@H](CCCN)NC(=O)[C@H](CCCNC(=N)N)NC(=O)[C@H](Cc1ccc(O)cc1)NC(=O)[C@H](CO)NC(=O)[C@H](CC(N)=O)NC(=O)[C@@H](NC(=O)[C@H](Cc1ccccc1)NC(=O)[C@@H](NC(=O)[C@H](C)NC(=O)[C@H](CC(=O)O)NC(=O)[C@@H](C)NC(=O)[C@H](Cc1ccc(O)cc1)NC)[C@@H](C)CC)[C@@H](C)O)C(C)C)[C@@H](C)CC)C(=O)N[C@@H](CC(=O)O)C(=O)N[C@@H](CCCNC(=N)N)C(=O)NC [Peptide P-27409, [N—Me-Tyr^1, D-Ala^2, Orn^12, Abu^15, Orn^21, Nle^27, Asp^28]hGHRH(1-29)NH—CH3] (H-[NMeY][dA]DAIFTNSYR[Orn]VL[Abu]QLSAR[Orn]LLQDI[Nle]DR-NHMe) | 68 ± 5.5 | 47 ± 5.8 | significantly increased | reduced cardiac dimensions | substantial improvement on cardiac performance | ⬆⬆ | ⬆⬆ | ⬇⬇ | ⬇⬇ | = | = | stimulated greater growth hormone levels than hGHRH or JI-38 | 1.47 | 1.31 | – | – | – | – | – | infarct size (MI %) ([4]; listed as MR-409): significantly attenuated; also recorded: substantial reductions
2 | CCCC[C@H](NC(=O)[C@@H](NC(=O)[C@H](CC(=O)O)NC(=O)[C@H](CCC(N)=O)NC(=O)[C@H](CC(C)C)NC(=O)[C@H](CC(C)C)NC(=O)[C@H](CCCN)NC(=O)[C@H](CCCNC(=N)N)NC(=O)[C@H](C)NC(=O)[C@H](CO)NC(=O)[C@H](CC(C)C)NC(=O)[C@H](CCC(N)=O)NC(=O)[C@H](CC)NC(=O)[C@H](CC(C)C)NC(=O)[C@@H](NC(=O)[C@H](CCCN)NC(=O)[C@H](CCCNC(=N)N)NC(=O)[C@H](Cc1ccc(O)cc1)NC(=O)[C@H](CO)NC(=O)[C@H](CCC(N)=O)NC(=O)[C@@H](NC(=O)[C@H](Cc1ccccc1)NC(=O)[C@@H](NC(=O)[C@H](C)NC(=O)[C@H](CC(=O)O)NC(=O)[C@H](C)NC(=O)CCc1ccc(O)cc1)[C@@H](C)CC)[C@@H](C)O)C(C)C)[C@@H](C)CC)C(=O)N[C@@H](CC(=O)O)C(=O)NCCCCNC(=N)N [JI-38, [Dat^1, Gln^8, Orn^12,21, Abu^15, Nle^27, Asp^28, Agm^29]hGHRH(1-29)NH2, reference compound] (Desaminotyrosyl-ADAIFTQSYR[Orn]VL[Abu]QLSAR[Orn]LLQDI[Nle]D-Agmatine) | 53 ± 6.7 | 71 ± 9.2 | significantly increased | – | – | – | – | – | – | – | – | – | – | – | 1 | 1 | 48.0 ± 10.4 ng/mL | 538 ± 58.3 ng/mL | 198 ± 18.1 ng/mL | infarct size (MI %) [4]: significantly attenuated; also recorded: substantial reductions
3 | CCCC[C@H](NC(=O)[C@@H](NC(=O)[C@H](CC(=O)O)NC(=O)[C@H](CCC(N)=O)NC(=O)[C@H](CC(C)C)NC(=O)[C@H](CC(C)C)NC(=O)[C@H](CCCN)NC(=O)[C@H](CCCNC(=N)N)NC(=O)[C@H](C)NC(=O)[C@H](CO)NC(=O)[C@H](CC(C)C)NC(=O)[C@H](CCC(N)=O)NC(=O)[C@H](CC)NC(=O)[C@H](CC(C)C)NC(=O)[C@@H](NC(=O)[C@H](CCCN)NC(=O)[C@H](CCCNC(=N)N)NC(=O)[C@H](Cc1ccc(O)cc1)NC(=O)[C@H](CO)NC(=O)[C@H](CCC(N)=O)NC(=O)[C@@H](NC(=O)[C@H](Cc1ccccc1)NC(=O)[C@@H](NC(=O)[C@H](C)NC(=O)[C@H](CC(=O)O)NC(=O)[C@H](C)NC(=O)[C@H](Cc1ccc(O)cc1)NC)[C@@H](C)CC)[C@@H](C)O)C(C)C)[C@@H](C)CC)C(=O)N[C@@H](CC(=O)O)C(=O)NCCCCNC(=N)N [Peptide P-20356, [N—Me-Tyr^1, Gln^8, Orn^12, Abu^15, Orn^21, Nle^27, Asp^28, Agm^29]hGHRH(1-29) NH2] (H-[NMeY]ADAIFTQSYR[Orn]VL[Abu]QLSAR[Orn]LLQDI[Nle]D-Agmatine) | 59 ± 7.1 | 65 ± 9.3 | significantly increased | reduced cardiac dimensions | substantial improvement on cardiac performance | = | ⬆⬆ | ⬇⬇ | ⬇⬇ | = | = | stimulated greater growth hormone levels than hGHRH or JI-38 | 1.72 | 1.09 | 1.17 | 1.26 | 37.8 ± 5.7 ng/mL | 632 ± 110 ng/mL | 250 ± 58.1 ng/mL | infarct size (MI %) ([4]; listed as MR-356): significantly attenuated; also recorded: substantial reductions
